Laboratory results: patent publication US20120135923A1, “Use of Melanocortins to Treat Dyslipidemia” (IPSEN PHARMA, S.A.S., priority 2009, published 2012)
Read-outs that look alike come from different tables or passages of the source. Bridge positions count the residues as written; N and C are the ends. Square brackets hold non-standard residues; d marks the D form. Peptide text beside a SMILES is read from it. d2Nal = N[C@H](Cc1ccc2ccccc2c1)C(=O)O; Bta = N[C@@H](Cc1csc2ccccc12)C(=O)O; βAla = NCCC(=O)O

What was measured:
Assay in all cases: cyclic AMP bioassay (ECL) in CHO-K1 cells
Type in all cases: cell-based
hMC4-R = target: T1, hMC4-R (Homo sapiens, UniProt P32245)
T1 construct: expressed in transfected cells; host or cells: CHO-K1

hMC3-R = target: T2, hMC3-R (Homo sapiens, UniProt P41968)
T2 construct: expressed in transfected cells; host or cells: CHO-K1
Method: Intracellular cyclic AMP (cAMP) levels were determined by an electrochemiluminescence (ECL) assay (Meso Scale Discovery®, Gaithersburg, Md.; referred to hereinafter as MSD). […] Transgenic CHO-K1 cells stably expressing hMC receptor subtypes 1, 3, 4 or 5 were dispensed at a density of approximately 7,000 cells/well in 384-well Multi-Array®plates (MSD) containing integrated carbon electrodes and coated with anti-cAMP antibody. Increasing concentrations of the test compounds were added and the cells were incubated for approximately 40 minutes at approximately 37° C. […] At the end of the second incubation period read buffer (Tris-buffered solution containing an ECL co-reactant and Triton X-100 at ph 7.8) was added and the cAMP levels in the cell lysates were immediately determined by ECL detection with a Sector Imager 6000 Reader® (MSD). Data were analyzed using a computer-assisted non-linear regression analysis (XL fit; IDBS) and reported as either an EC50 value or a Kb value.
The Kb value reflects the potency of an antagonist and is determined by Schild analysis. In brief, concentration-response curves of an agonist are carried out in the presence of increasing concentrations of an antagonist. […] It is calculated by extrapolating the line on a Schild plot to zero on the y-axis.

hMC1-R = target: T3, hMC1-R (Homo sapiens, UniProt Q01726)
T3 construct: expressed in transfected cells; host or cells: CHO-K1

hMC5-R = target: T4, hMC5-R (Homo sapiens, UniProt P33032)
T4 construct: expressed in transfected cells; host or cells: CHO-K1
T4 sequence (P33032 whole entry): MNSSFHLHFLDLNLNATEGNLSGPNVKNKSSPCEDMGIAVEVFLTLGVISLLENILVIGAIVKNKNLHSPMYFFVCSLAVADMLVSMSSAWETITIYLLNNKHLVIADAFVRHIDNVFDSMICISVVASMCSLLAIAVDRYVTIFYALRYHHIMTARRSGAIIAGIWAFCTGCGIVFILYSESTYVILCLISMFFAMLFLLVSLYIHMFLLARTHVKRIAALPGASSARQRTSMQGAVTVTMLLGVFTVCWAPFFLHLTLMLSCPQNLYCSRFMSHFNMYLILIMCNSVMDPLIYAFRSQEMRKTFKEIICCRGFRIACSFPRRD

T3 sequence (Q01726 whole entry): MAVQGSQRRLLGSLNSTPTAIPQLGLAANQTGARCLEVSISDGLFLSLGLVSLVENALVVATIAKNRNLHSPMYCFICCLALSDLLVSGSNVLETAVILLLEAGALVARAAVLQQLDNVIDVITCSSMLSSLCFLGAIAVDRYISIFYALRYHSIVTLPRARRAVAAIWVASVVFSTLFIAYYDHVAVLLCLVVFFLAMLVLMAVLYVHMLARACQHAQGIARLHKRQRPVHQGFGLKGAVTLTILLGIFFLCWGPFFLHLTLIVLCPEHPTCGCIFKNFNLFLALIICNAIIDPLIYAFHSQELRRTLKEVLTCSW
T1 sequence (P32245 whole entry): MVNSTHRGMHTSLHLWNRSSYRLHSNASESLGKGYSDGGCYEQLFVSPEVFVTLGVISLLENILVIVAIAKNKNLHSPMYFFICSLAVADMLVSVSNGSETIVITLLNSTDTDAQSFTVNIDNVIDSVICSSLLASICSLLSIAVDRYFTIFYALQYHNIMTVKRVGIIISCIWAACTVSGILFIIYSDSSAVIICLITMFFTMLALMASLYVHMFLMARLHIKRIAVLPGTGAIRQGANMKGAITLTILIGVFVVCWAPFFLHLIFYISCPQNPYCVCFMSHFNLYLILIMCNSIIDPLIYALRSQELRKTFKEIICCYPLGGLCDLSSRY
T2 sequence (P41968 whole entry): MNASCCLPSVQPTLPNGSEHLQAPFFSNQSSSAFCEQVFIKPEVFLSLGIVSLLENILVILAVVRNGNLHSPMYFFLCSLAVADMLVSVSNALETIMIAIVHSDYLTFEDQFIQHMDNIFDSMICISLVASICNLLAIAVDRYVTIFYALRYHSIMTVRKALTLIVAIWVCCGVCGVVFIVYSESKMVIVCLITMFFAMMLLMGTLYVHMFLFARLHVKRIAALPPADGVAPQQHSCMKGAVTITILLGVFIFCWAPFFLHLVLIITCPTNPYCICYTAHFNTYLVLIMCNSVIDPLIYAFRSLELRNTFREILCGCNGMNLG

Row | SMILES | Kb (hMC4-R) | Kb (hMC3-R) | EC50 (hMC1-R) | EC50 (hMC5-R) | EC50 (hMC4-R) | EC50 (hMC3-R) | further results
1 | CC(=O)N[C@H]1CSSC[C@@H](C(=O)N2CCC[C@H]2C(=O)N2CCC[C@H]2C(=O)N[C@@H](CCCCN)C(=O)N[C@@H](CC(=O)O)C(=O)NCCC(=O)N[C@@H](Cc2ccc(O)cc2)C(=O)NCC(=O)N[C@@H](CCCNC(=N)N)C(=O)N[C@@H](CCCNC(=N)N)C(=O)N[C@@H](CCCCN)C(=O)N[C@@H](CCCNC(=N)N)C(=O)N[C@@H](CCCNC(=N)N)C(=O)N[C@@H](CCC(N)=O)C(=O)N[C@@H](CCCNC(=N)N)C(=O)N[C@@H](CCCNC(=N)N)C(=O)N[C@@H](CCCNC(=N)N)C(N)=O)NC(=O)[C@H](C)NC(=O)[C@H](Cc2csc3ccccc23)NC(=O)[C@H](CCCNC(=N)N)NC(=O)[C@@H](Cc2ccc3ccccc3c2)NC(=O)[C@H](Cc2c[nH]cn2)NC(=O)[C@H](CCC(=O)O)NC1=O | 8.43 nM | 37.8 nM | 19.8 nM | 158 nM |  |  | 
2 | CC(=O)N[C@H]1CSSC[C@@H](C(=O)N2CCC[C@H]2C(=O)N2CCC[C@H]2C(=O)N[C@@H](CCCCN)C(=O)N[C@@H](CC(=O)O)C(=O)NCCC(=O)NCC(=O)N[C@@H](CCCNC(=N)N)C(=O)N[C@@H](CCCNC(=N)N)C(=O)N[C@@H](CCCCN)C(=O)N[C@@H](CCCNC(=N)N)C(=O)N[C@@H](CCCNC(=N)N)C(=O)N[C@@H](CCC(N)=O)C(=O)N[C@@H](CCCNC(=N)N)C(=O)N[C@@H](CCCNC(=N)N)C(=O)N[C@@H](CCCNC(=N)N)C(N)=O)NC(=O)[C@H](C)NC(=O)[C@H](Cc2csc3ccccc23)NC(=O)[C@H](CCCNC(=N)N)NC(=O)[C@@H](Cc2ccc3ccccc3c2)NC(=O)[C@H](Cc2c[nH]cn2)NC(=O)[C@H](CCC(=O)O)NC1=O | 4.42 nM | 93.6 nM | 33.8 nM | 89.5 nM |  |  | 
3 | CC(=O)N[C@H]1CSSC[C@@H](C(=O)N2CCC[C@H]2C(=O)N2CCC[C@H]2C(=O)N[C@@H](CCCCN)C(=O)N[C@@H](CC(=O)O)C(=O)NCCC(=O)N[C@@H](CCCNC(=N)N)C(=O)N[C@@H](CCCNC(=N)N)C(=O)N[C@@H](CCCNC(=N)N)C(=O)N[C@@H](CCCNC(=N)N)C(=O)N[C@@H](CCCNC(=N)N)C(=O)N[C@@H](CCC(N)=O)C(=O)N[C@@H](CCCNC(=N)N)C(=O)N[C@@H](CCCNC(=N)N)C(=O)N[C@@H](CCCNC(=N)N)C(N)=O)NC(=O)[C@H](C)NC(=O)[C@H](Cc2csc3ccccc23)NC(=O)[C@H](CCCNC(=N)N)NC(=O)[C@@H](Cc2ccc3ccccc3c2)NC(=O)[C@H](Cc2c[nH]cn2)NC(=O)[C@H](CCC(=O)O)NC1=O | 6.14 nM | 170 nM | 52 nM | 328 nM |  |  | 
4 | CC(=O)N[C@H]1CSSC[C@@H](C(=O)N2CCC[C@H]2C(=O)N2CCC[C@H]2C(=O)N[C@@H](CCCCN)C(=O)N[C@@H](CC(=O)O)C(=O)NCCC(=O)N[C@@H](Cc2ccc(O)cc2)C(=O)NC(C)(C)C(=O)N[C@@H](CCCNC(=N)N)C(=O)N[C@@H](CCCCN)C(=O)N[C@@H](CCCCN)C(=O)N[C@@H](CCCNC(=N)N)C(=O)N[C@@H](CCCNC(=N)N)C(=O)N[C@@H](CCC(N)=O)C(=O)N[C@@H](CCCNC(=N)N)C(=O)N[C@@H](CCCNC(=N)N)C(=O)N[C@@H](CCCNC(=N)N)C(N)=O)NC(=O)[C@H](C)NC(=O)[C@H](Cc2csc3ccccc23)NC(=O)[C@H](CCCNC(=N)N)NC(=O)[C@@H](Cc2ccc3ccccc3c2)NC(=O)[C@H](Cc2c[nH]cn2)NC(=O)[C@H](CCC(=O)O)NC1=O |  |  |  |  |  |  | Kb (hMC4-R; antagonist potency by Schild analysis, cAMP, CHO-K1 cells expressing hMC4-R, read-out: Kb hMC4-R): 46.5 nM; Kb (hMC3-R; antagonist potency by Schild analysis, cAMP, CHO-K1 cells expressing hMC3-R, read-out: Kb hMC3-R): 439 nM; EC50 (hMC1-R; cAMP, CHO-K1 cells expressing hMC1-R, read-out: EC50 hMC1-R): 67.1 nM; EC50 (hMC5-R; cAMP, CHO-K1 cells expressing hMC5-R, read-out: EC50 hMC5-R): 582 nM
5 | CC(=O)N[C@H]1CSSC[C@@H](C(=O)N2CCC[C@H]2C(=O)N2CCC[C@H]2C(=O)N[C@@H](CCCCN)C(=O)N[C@@H](CC(=O)O)C(=O)NCCC(=O)N[C@@H](Cc2ccc(O)cc2)C(=O)NCC(=O)N[C@@H](CCCNC(=N)N)C(=O)N[C@@H](CCCNC(=N)N)C(=O)N[C@@H](CCCNC(=N)N)C(=O)N[C@@H](CCCNC(=N)N)C(=O)N[C@@H](CCCNC(=N)N)C(=O)N[C@@H](CCC(N)=O)C(=O)N[C@@H](CCCNC(=N)N)C(=O)N[C@@H](CCCNC(=N)N)C(=O)N[C@@H](CCCNC(=N)N)C(N)=O)NC(=O)[C@H](C)NC(=O)[C@H](Cc2csc3ccccc23)NC(=O)[C@H](CCCNC(=N)N)NC(=O)[C@@H](Cc2ccc3ccccc3c2)NC(=O)[C@H](Cc2c[nH]cn2)NC(=O)[C@H](CCC(=O)O)NC1=O (Ac-CEH[d2Nal]R[Bta]ACPPKD[βAla]YGRRRRRQRRR-NH2; disulfide 1-8) | 28.4 nM | 44.6 nM | 114 nM | 879 nM |  |  | 
6 | CC(=O)N[C@H]1CSSC[C@@H](C(=O)N2CCC[C@H]2C(=O)N2CCC[C@H]2C(=O)N[C@@H](CCCNC(=N)N)C(=O)N[C@@H](CC(=O)O)C(=O)NCCC(=O)N[C@@H](CCCNC(=N)N)C(=O)N[C@@H](CCCNC(=N)N)C(=O)N[C@@H](CCCNC(=N)N)C(=O)N[C@@H](CCCNC(=N)N)C(=O)N[C@@H](CCCNC(=N)N)C(=O)N[C@@H](CCCNC(=N)N)C(=O)N[C@@H](CCC(N)=O)C(=O)N[C@@H](CCCNC(=N)N)C(=O)N[C@@H](CCCNC(=N)N)C(=O)N[C@@H](CCCNC(=N)N)C(N)=O)NC(=O)[C@H](C)NC(=O)[C@H](Cc2csc3ccccc23)NC(=O)[C@H](CCCNC(=N)N)NC(=O)[C@@H](Cc2ccc3ccccc3c2)NC(=O)[C@H](Cc2c[nH]cn2)NC(=O)[C@H](CCC(=O)O)NC1=O (Ac-CEH[d2Nal]R[Bta]ACPPRD[βAla]RRRRRRQRRR-NH2; disulfide 1-8) | 19.4 nM | 41.7 nM | 86.1 nM | 2360 nM |  |  | 
7 | CC(=O)N[C@@H](CCCNC(=N)N)C(=O)N[C@H]1CSSC[C@@H](C(N)=O)NC(=O)[C@H](Cc2c[nH]c3ccccc23)NC(=O)[C@H](CCCNC(=N)N)NC(=O)[C@@H](Cc2ccc3ccccc3c2)NC(=O)[C@H](Cc2c[nH]cn2)NC(=O)[C@@H](C)NC1=O [Ac-Arg-c(Cys-D-Ala-His-D-2-Nal-Arg-Trp-Cys)-NH2] | 1.58 nM | 5.72 nM | 193 nM | 1110 nM |  |  | 
8 | CC(=O)N[C@@H](CCCNC(=N)N)C(=O)N[C@H]1CSSC(C)(C)[C@@H](C(N)=O)NC(=O)[C@H](Cc2c[nH]c3ccccc23)NC(=O)[C@H](CCCNC(=N)N)NC(=O)[C@@H](Cc2ccccc2)NC(=O)[C@H](Cc2c[nH]cn2)NC(=O)[C@@H](C)NC1=O [Ac-Arg-c(Cys-D-Ala-His-D-Phe-Arg-Trp-Pen)-NH2] |  |  | 48.3 nM | 10000 nM | 0.79 nM | 13.3 nM | 
9 | CCCC[C@H](NC(C)=O)C(=O)N[C@H]1CC(=O)NCCCC[C@@H](C(N)=O)NC(=O)[C@H](C)NC(=O)[C@H](Cc2c[nH]c3ccccc23)NC(=O)[C@H](CCCNC(=N)N)NC(=O)[C@@H](Cc2ccc3ccccc3c2)NC(=O)[C@H](Cc2c[nH]cn2)NC1=O [Ac-Nle-c(Asp-His-D-2-Nal-Arg-Trp-Ala-Lys)-NH2] |  |  |  |  |  |  | EC50 (hMC1-R; Table 9C/9D, read-out: EC50 hMC1-R): 0.619 nM
10 | CCCC[C@H](NC(C)=O)C(=O)N[C@@H]1C(=O)N[C@H](C)C(=O)N[C@@H](Cc2c[nH]cn2)C(=O)N[C@H](Cc2ccccc2)C(=O)N[C@@H](CCCNC(=N)N)C(=O)N[C@@H](Cc2c[nH]c3ccccc23)C(=O)N[C@H](C(N)=O)CSSC1(C)C [Ac-Nle-c(Pen-D-Ala-His-D-Phe-Arg-Trp-Cys)-NH2] |  |  |  |  | 0.531 nM | 1.89 nM | 
11 | C[C@@H]1NC(=O)N(CC(=O)N[C@H]2CSSC[C@@H](C(N)=O)NC(=O)[C@H](Cc3c[nH]c4ccccc34)NC(=O)[C@H](CCCNC(=N)N)NC(=O)[C@@H](Cc3ccccc3)NC(=O)[C@H](Cc3cnc[nH]3)NC(=O)[C@@H](C)NC2=O)C1=O [Hydantoin(C(O)-(Ala-Gly))-c(Cys-D-Ala-His-D-Phe-Arg-Trp-Cys)-NH2] |  |  |  | 516 nM | 0.241 nM | 2.23 nM | 
12 | C[C@H]1NC(=O)[C@@H](NC(=O)CN2C(=O)N[C@@H](CCCNC(=N)N)C2=O)CSSC[C@@H](C(N)=O)NC(=O)[C@H](Cc2c[nH]c3ccccc23)NC(=O)[C@H](CCCNC(=N)N)NC(=O)[C@@H](Cc2ccccc2)NC(=O)[C@H](Cc2cnc[nH]2)NC1=O [Hydantoin(C(O)-(Arg-Gly))-c(Cys-D-Ala-His-D-Phe-Arg-Trp-Cys)-NH2] |  |  | 8.81 nM |  | 0.503 nM | 18.2 nM | 
13 | C[C@H]1NC(=O)[C@@H](NC(=O)[C@H](CCCNC(=N)N)N2C(=O)CNC2=O)CSSC[C@@H](C(N)=O)NC(=O)[C@H](Cc2c[nH]c3ccccc23)NC(=O)[C@H](CCCNC(=N)N)NC(=O)[C@@H](Cc2ccccc2)NC(=O)[C@H](Cc2cnc[nH]2)NC1=O [Hydantoin(C(O)-(Gly-Arg))-c(Cys-D-Ala-His-D-Phe-Arg-Trp-Cys)-NH2] |  |  | 8.85 nM |  | 0.599 nM | 5.17 nM | 
14 | N=C(N)NCCC[C@@H]1NC(=O)[C@@H](Cc2ccccc2)NC(=O)[C@H](Cc2cnc[nH]2)NC(=O)[C@H](CCC(=O)O)NC(=O)[C@@H](NC(=O)CN2C(=O)CNC2=O)CSSC[C@@H](C(N)=O)NC(=O)[C@H](Cc2c[nH]c3ccccc23)NC1=O [Hydantoin(C(O)-(Gly-Gly))-c(Cys-Glu-His-D-Phe-Arg-Trp-Cys)-NH2] |  |  |  |  |  |  | EC50 (hMC3-R; Table 11, read-out: EC50 hMC3): 8.05 nM; EC50 (hMC1-R; Table 11, read-out: EC50 hMC1): 124 nM
15 | CCCC[C@@H](C(=O)N[C@H]1CSSC[C@@H](C(N)=O)NC(=O)[C@H](Cc2c[nH]c3ccccc23)NC(=O)[C@H](CCCNC(=N)N)NC(=O)[C@@H](Cc2ccccc2)NC(=O)[C@H](Cc2cnc[nH]2)NC(=O)[C@@H](C)NC1=O)N1C(=O)N[C@@H](CC(C)C)C1=O [Hydantoin(C(O)-(Leu-Nle))-c(Cys-D-Ala-His-D-Phe-Arg-Trp-Cys)-NH2] |  |  |  |  | 1.83 nM | 9.68 nM | 
16 | CCCC[C@@H](C(=O)N[C@H]1CSSC[C@@H](C(N)=O)NC(=O)[C@H](Cc2c[nH]c3ccccc23)NC(=O)[C@H](CCCNC(=N)N)NC(=O)[C@@H](Cc2ccccc2)NC(=O)[C@H](Cc2cnc[nH]2)NC(=O)[C@@H](C)NC1=O)N1C(=O)N[C@@H](C(C)C)C1=O [Hydantoin(C(O)-(Val-Nle))-c(Cys-D-Ala-His-D-Phe-Arg-Trp-Cys)-NH2] |  |  |  |  | 0.977 nM | 4.61 nM | 
